The melting point is the temperature, or range, at which the solid turns liquid.

Take `NS(=O)(=O)c1cc(CCNC(=O)C=Cc2cccs2)ccc1OCC1CCCCO1` (configuration not stated): the melting point was 106 °C. `CS(=O)(=O)c1ccc(C(=O)N[C@H]2CC[C@H](CCN3CCC(c4cccc5c4CCO5)CC3)CC2)cc1` showed a melting point of 236 °C.

Turning to `C#Cc1cccc(-c2cccnc2F)c1`, the melting point lay in the range of 45 to 47 °C.

On to `C(=Cc1ccccc1)COc1ccc2c(c1)OCO2`, for which the melting point is 83 °C.

For the compound `COC(=O)CNC(=O)COc1ccc(C(C)=O)cc1`, the melting point is 120 to 121 °C. As for `CC(C)(C)OC(=O)NC(C(=O)O)c1ccccc1O` (configuration not stated), the melting point came out at 125 °C. Consider `Cc1cc(-c2ncn3c(C(F)(F)F)cc(-c4ccc(F)c(Cl)c4)nc23)ccn1`, for which the melting point was determined as 255 °C. As to `CC(C)(O)c1cc(Br)ccc1NC(=O)CCl`, the melting point lay within 133 to 134 °C.

Compound `CCN(CC)CCn1c(Cl)c(C(=O)NC)c2ccccc21` registered a melting point of 103 to 104 °C.

The compound `CC(=O)N(C)C1Cc2ccc(C(=O)Cn3cnc4cc(-c5ccc(Cl)cc5)sc4c3=O)cc2C1` (configuration not stated) had a melting point of 276 °C. On to `CC(c1ccc(-c2ccccc2Cl)cc1)S(=O)CC(=O)O` (configuration not stated), for which the melting point is 144 to 147 °C. As for `Cn1cc(C(=S)NCc2ccc(Cl)cc2)c(=O)c2cc(I)ccc21`, the melting point was in the range of 153 to 155 °C. The compound `COC(=O)c1nc2sc(CC(C)C)c(C)c2c(=O)[nH]1` displayed a melting point of 173 to 175 °C. For the compound `COC1C=Cc2ccccc2C1(Nc1ccccc1C)C(N)=S` (configuration not stated), the melting point turned out to be 162 °C. Regarding `CN(C)CCC(=O)Nc1cccc(NC(=O)Nc2ccc(N(CCCl)CCCl)cc2)c1`, the melting point lay within 88 to 90 °C. The compound `O=C1C=CC(O)(c2nccs2)C=C1` displayed a melting point of 138 to 139 °C. With `Cc1oc(-c2ccccc2)nc1COc1ccc(CN(O)C(N)=O)cc1` the figure was 157 to 159 °C. Regarding `CCCCCCCC(=O)N(C)Cc1cc(-c2ccc(C=C3SC(=O)NC3=O)cc2)ccc1OCc1ccccc1`, the melting point came out at 158 °C. Regarding `COC(=O)c1ccccc1NC(=O)OCC1CCN(CCNS(C)(=O)=O)CC1`, the melting point was 106 to 108 °C. Consider `CCCCNC(=O)C(C)n1nnc2ccc(Oc3cc(F)c(C(F)(F)F)c(Cl)c3)cc21` (configuration not stated), for which the melting point lay within 142 to 143 °C.

`CC(C)CNC(=O)[C@H]1C[C@@H](S(=O)(=O)c2ccc([N+](=O)[O-])cc2)[C@@H](c2ccccc2F)N1` (racemic) displayed a melting point of 218 °C. For `CN(C)C=Nc1nc2ncn(C)c(=S)n2n1`, the melting point was above 300 °C. In turn, `Cc1cn(-c2ccc(NC(=O)c3ccc(Cl)c(C#Cc4ccc(NC5CCC5)nn4)c3)cc2C(F)(F)F)cn1` had a melting point of 153 to 155 °C.

With `Cn1cc(-c2cccc(N3Cc4cc(C(C)(C)C)ccc4C3=O)c2CO)cc(Nc2ccc(N3CCNCC3=O)cn2)c1=O`, the melting point was 218 to 220 °C. For the compound `COc1cccc(Cc2cc(Br)ccc2O)c1`, the melting point lay in the range of 97 to 102 °C. In turn, `CCCCCCCCCCCCCCCc1cccc(OCC)c1C1NC(=O)NC(C)=C1C(=O)OCC` (configuration not stated) returned a melting point of 99 to 100 °C. The result for `CN(C)Cc1cc2ccc(C(=O)NN)cc2n1S(C)(=O)=O` reads 170 to 173 °C; that for `CSc1nnc(-c2cccs2)n1C`, 83 to 85 °C.

`CCC(=O)N[C@@H](C)C(=O)N1CCC[C@H]1C(=O)NC1CCCC1` came in with a melting point of 172 to 173 °C. For the compound `COc1cccc2c1OC(C(N)=O)(c1ccncc1CC(=O)OCc1ccccc1)C2` (configuration not stated), the melting point lay in the range of 165 to 166 °C. The compound `Nc1c2c(nc3ccccc13)CCCC2=O` registered a melting point of 236 to 238 °C.

As to `COc1cc(C(C)C(=O)O)ccc1-c1ccc(F)cc1` (configuration not stated), the melting point is 133 to 136 °C. In the case of `Cc1oc(C2(C)CCCCC2)nc1CC#N`, the melting point lay within 57 to 58 °C. On to `O=C(O)CCCCn1c(=O)c2cc(O)ccc2n(CCCCN2CCC(OC(c3ccccc3)c3ccccc3)CC2)c1=O`, for which the melting point lay within 234 to 236 °C.

Turning to `CC1(C)CCC2(C(=O)O)CCC3(C)C(=CCC4C5(C)Cc6c(n[nH]c6N)C(C)(C)C5CCC43C)C2C1` (configuration not stated), the melting point fell in the range of 263 to 266 °C. In turn, `CC(C)NCC(O)COc1ccc2c(c1)OC(C)CC2` (configuration not stated) gave a melting point of 79 to 81 °C.

For the compound `Cc1cn(C)c(CO)n1`, the melting point was in the range of 125 to 126 °C. The compound `O=C(O)c1cccc(C23CC4CC(CC(C4)C2)C3)c1` displayed a melting point of 247 to 249 °C. For `COC(=O)[C@H](O)Cc1ccccc1`, the melting point was in the range of 46 to 47 °C. The result for `CNc1ccc(NC(=O)OC2CCCC2)cc1C(Cc1ccc(C(=O)OC)cc1OC)=NOC(C)=O` reads 124 to 126 °C; that for `CCSCc1ccc(C(=O)c2ccc(Cl)cc2)cc1`, 33 to 34 °C. In turn, `COc1ccc(-c2c(C(=O)c3ccccc3)c(C)nc3cc(OC)c(OC)cc23)cc1OC` gave a melting point of 151 to 152 °C. The compound `COc1ccc(CNCCCOc2ccc(NC(=O)c3cccc4c(=O)c5ccccc5[nH]c34)cc2)cc1OC` registered a melting point of 138 to 139 °C.

Compound `Cc1oc(-c2ccc(C(F)(F)F)cc2)nc1COc1ccc(S(=O)(=O)Cl)cc1` had a melting point of 90 to 93 °C. The compound `CC(C)(C)c1cc(N2C(=O)c3ccccc3C2=O)cc(C(C)(C)C)c1O` showed a melting point of 196 to 201 °C.

Turning to `Cc1cc(=O)c(-c2ccc(Cl)c(Cl)c2)c(-c2ccc(S(N)(=O)=O)cc2)o1`, the melting point was determined as 128 °C. `CCOC(=O)C(Cc1ccc(OC)cc1)(C(=O)OCC)c1cc2cc(Br)ccc2s1` showed a melting point of 58 to 60 °C. `CCc1nc2c(cnn2CC)c(NC2CCOCC2)c1CNC(=O)c1cc(C)cc(C(=O)NCc2ccc(Cl)c(Br)c2)c1` had a melting point of 212 to 214 °C.

Compound `COc1ccc2c(c1)Sc1ccc(SC)cc1C(Cl)C2` (configuration not stated) yielded a melting point of 120 to 123 °C. For the compound `CC(C)(C)SC[C@@H]1NC(=O)[C@@H](CSSC[C@@H]2NC(=O)[C@@H](CSC(C)(C)C)NC2=O)NC1=O`, the melting point was found to be 278 °C. The result for `CC(C)c1c(CC[C@@H]2C[C@@H](O)CC(=O)O2)n(-c2ccc(F)cc2)c(=O)c2ccccc12` reads 192 to 193 °C. In the case of `N#CCc1cnc(Cl)c(Cl)c1`, the melting point fell in the range of 72 to 75 °C. `CC(=O)Nc1nc(/C=C/C(=O)N2CCN(C(=O)c3cc(C(F)(F)F)cc(C(F)(F)F)c3)[C@H](Cc3c[nH]c4ccccc34)C2)cs1` had a melting point of 167 to 172 °C. For the compound `CC(=O)C(=O)Nc1ccc(Cl)cc1`, the melting point worked out at 151 °C.

Consider `CCCCC(=O)SCC(Cc1ccccc1)C(=O)Nc1cc(C)cc(C(=O)O)c1` (configuration not stated), for which the melting point fell in the range of 151 to 153 °C.

Compound `N#Cc1cnc2cc(-c3csc(C=O)c3)ccc2c1Nc1ccc(Cl)cc1Cl` had a melting point of 286 to 288 °C. `CCCCC1CCC(CC(=O)c2ccc(-c3ccc(CC(C)CC)cc3F)cc2)CC1` (single isomer, unassigned; (+)) showed a melting point of 71.4 to 72.1 °C. With `O=c1c2c(Cc3ccc([N+](=O)[O-])cc3)n[nH]c2c2cccnc2n1-c1ccccc1` the figure was 254 to 255 °C.

`O=C(Cn1c(=O)[nH]c2ccccc21)c1c(-c2ccccc2)nc2ccccn12` displayed a melting point of 233 to 235 °C.

`CC(=O)N1CCc2cc(CC(C)N)cc(C#N)c21` (configuration not stated): the melting point lay within 94 to 96 °C. Consider `COc1cc(C)nc(NC(=O)NS(=O)(=O)c2ccccc2C(O)CF)n1` (configuration not stated), for which the melting point fell in the range of 153 to 155 °C. In the case of `Cn1ncc(S(=O)Cc2ccccc2)c(Cl)c1=O` (configuration not stated), the melting point was in the range of 129 to 131 °C. Consider `O=C(O)c1nn(-c2ccc(Cl)cc2Cl)c(-c2ccc(Cl)cc2)c1CF`, for which the melting point lay within 60 to 80 °C. The compound `O=C(O)c1ccc2oc(COCc3ccccc3)cc2c1` returned a melting point of 129 to 132 °C.

The compound `COc1ccc(N2CCCN(/C(C)=C(/C#N)C(N)=S)CC2)cn1` came in with a melting point of 159 to 161 °C. For the compound `Cc1ccc(C=Cc2ccc(C#CC(C)N(O)C(N)=O)o2)cc1` (configuration not stated), the melting point came out at 174 °C. `CC(=O)NC(c1ccc(Cl)cc1)(c1ccc2c(c1)c(-c1nc(-c3ccccc3)cs1)cc(=O)n2C)c1cncn1C` (configuration not stated) displayed a melting point of 244 °C. On to `NS(=O)(=O)c1cc(C(=O)CCCCN(CCc2ccccc2OC(F)(F)F)C(=O)C(F)(F)F)cc2c1OCC2`, for which the melting point lay within 108 to 110 °C.

Compound `COc1ccc(Sc2ccc(C=[N+]([O-])C(C)(C)C)o2)cc1` had a melting point of 91.7 °C. With `O=C(O)CC(F)C(=O)c1ccc(-c2ccc(Cl)cc2)cc1` (configuration not stated) the figure was 170 to 173 °C. As for `CCCCCCCCCCCCOc1cc(CC#N)c(SC)cc1CC#N`, the melting point was in the range of 100 to 102 °C. The result for `COc1nc(NC(=O)Nc2ccccc2OC)nc(N(CCC(=O)O)Cc2ccc(Cl)c(Cl)c2)n1` reads 208 to 210 °C; that for `COc1ccc(-c2nn(C3CCC3)c3c(C(F)(F)F)cccc23)c(OC)c1`, 109 to 110 °C. Turning to `O=c1[nH]c2cc(Cl)c(Cl)c(-c3ccncc3)c2[nH]c1=O`, the melting point was above 300 °C. Regarding `COc1ccc2ccc3nc(C(=O)Nc4nnn[nH]4)cn3c2c1`, the melting point was in the range of 298 to 301 °C. With `c1ccc2c(c1)OCCc1c-2n(Cc2ccc(OCCCN3CCCCC3)cc2)c2ccccc12`, the melting point was 129 to 130 °C. Turning to `Cc1cccc(-c2n[nH]cc2-c2ccc(F)c(-c3csc(CO)n3)c2)n1`, the melting point was in the range of 89 to 92 °C. Compound `Cc1cccc(-c2c(Cl)ccc3c2C=C(C(=O)O)C(C(F)(F)F)O3)c1` (configuration not stated) yielded a melting point of 222 to 224 °C. For `C#CC1(COC(C)=O)OC(n2ccc(=O)[nH]c2=O)C(OC(C)=O)C1OC(C)=O` (configuration not stated), the melting point lay within 160 to 162 °C. `CCCC(=O)Nc1cnc2cc(F)ccc2c1O` gave a melting point of 306 to 308 °C.

`CC(=O)OC(C)c1ncnc(Cl)c1I` (configuration not stated): the melting point fell in the range of 55 to 58 °C. Consider `O=C1CC(CI)C(=O)N1c1ccc(F)cc1` (configuration not stated), for which the melting point was 156 °C.

On to `CN(C)CCCNC(=O)c1ccc(-c2nnc(CSCCOc3ccc(Cl)cc3Cl)o2)cc1`, for which the melting point was 140 to 141 °C. `Cc1nc(Cl)c2ccccc2c1CC(=O)O`: the melting point is 180 to 183 °C. The compound `O=C1c2ccccc2OCC1Br` (configuration not stated) yielded a melting point of 48 to 51 °C. For the compound `COc1ccc(C(=O)Nc2c(Cl)cncc2Cl)cc1OC1CCCC1`, the melting point fell in the range of 153 to 155 °C.

In the case of `COc1cc(/C=C/C(=O)C#CCO)cc(OC)c1OC`, the melting point lay within 113 to 115 °C.
